# Assay results from patent US4067997A, “Synergistic microbecidal composition and method” (priority 1976, dated 1978).
# Like-named read-outs stand apart in the source and are kept apart here.
# Columns and labels:
# Streptococcus Group D = test: MIC, broth dilution (Examples I/II); type: cell-based; details: Table 3, Streptococcus Group D
# Experimental: (§1) In order to establish comparative bactericidal and fungicidal results with homologous fatty acids, a series of experiments was performed with thirty straight-chain fatty acids and derivatives thereof. Eight different gram-negative and twelve different gram-positive organisms, representing a very broad spectrum of organisms, were used in these experiments including the fungus Candida (a yeast). Additionally, fatty acids were chosen to show the effects of saturation versus unsaturation, in the fatty acid claim. Standard solutions of the fatty acids and their derivatives were prepared by first dissolving the weighed compounds in 1 to 2 ml of 95% ethanol and immediately pouring this solution into 200 ml of Tripticase Soy Broth. These lipid compounds which are insoluble in water and broth precipitated into very small crystals or droplets. The tubes containing the suspension were warmed to approximately 70° C and were then placed in an ultrasonic tank for further solubilization of the lipid derivatives.
# (§2) Standard solutions (or suspensions) at 1,000 μg/ml were twofold serially diluted with additional broth to a concentration of 125 μg/ml. A 4-ml amount of each dilution was then quickly, and with constant agitation, dispensed into appropriately labeled screw-capped glass tubes (16 by 125 mm). The tubes were sterilized with steam at 15 psi for 15 minutes. After sterilization, all tubes were cooled and incubated overnight at 35° C to insure sterility.
# (§3) All compounds were compared on a molar (micromoles/milliliter) rather than on a mass basis. In the following lists of organisms used, those followed by a parenthetical number are registered with the American Type Culture Collection (ATCC); the remainder were isolates from Providence Hospital or Northland Laboratory.
# (§4) One drop (0.04 ± 0.01 ml) of an 18-hr broth culture containing 10^7 and 10^9 organisms/ml was added to each dilution of the test compound, as well as to a tube of plain broth which served as the positive control. After inoculation, the contents of each tube were well mixed, and the tubes were incubated at 35° C in a 5% carbon dioxide + […] atmosphere.
# (§5) The MIC is defined as the lowest concentration of compound at which no […] evidence of growth was observed when turbidity of the inoculated broth dilutions was compared with control tubes. […] Only a one-tube difference between the bactericidal and bacteriostatic concentrations was normally observed.
# (§6) Standard solutions (1000 μg/ml) of three fatty acids and polyglycerol esters thereof were prepared as described in Example I. Also sucrose esters were prepared by transferring the weighed compounds (0.2 gm. dissolved in 1 ml absolute methanol) into 200 ml of sterile Trypticase Soy Broth (TSB). These standard solutions (1000 μg/ml) were twofold serially diluted with additional sterile broth to a concentration of 125 μg/ml. A 3.8 aliquot of each dilution was asceptically delivered into sterile screw-capped culture tubes. All tubes were incubated overnight at 36° C to insure sterility. The microorganisms used in this example were the same as those used in Example I.
# (§7) The inoculum, 0.05 ml of an 13-24 hour TSB culture (approximately 10^9 organisms/ml) was asceptically delivered into all dilutions of the compounds, mixed well, and incubated at 36° C. A tube of inoculated broth without the compound served as a positive control and an uninoculated set of dilutions incubated along with the test dilutions, served as a negative control.
# (§8) In those cases in which the test compound itself caused turbidity, an aliquot (0.015 ml) of the mixed broth was inoculated onto an agar plate and incubated at 36° C for examination, as described in Example I. The control procedure of Example I was also repeated. The lauric, capric, and oleic acids were used as internal controls and for comparison to Example I. The minimal inhibitory concentrations (μmole/ml) for the compounds studied are given in Tables 7 and 8.
# Candida albicans = test: MIC on mass basis (Example V procedure); type: cell-based
# Experimental: (§9) The essential procedure of Example I was followed with a series of phenolic compounds, with the exception that the test method was conducted on a mass (μg/ml) basis rather than a molecular (mol/ml) basis of the foregoing tests, since the long established phenol-coeffecient test is on a mass rather than molecular basis. Additionally, a different but closely related group of organisms were used in this test, in order to give a complete representative span on gram-negative, gram-positive and fungus organisms. Additionally, the phenolic derivatives chosen for test purposes include a number of derivatives which are presently accepted by the FDA as food-grade phenolic microbicides.
# (§10) The same procedure of Example V was repeated but with combinations of mono-laurin (GML).
# (§11) The procedure of Example V was repeated with combinations of glycerol mono-laurin (GML) and ethylenediamine tetraacetic acid (EDTA) as the calcium salt and in combination with BHA.
# Escherichia coli = test: MIC on mass basis (Example V procedure); type: cell-based
# Experimental: as §9, §10, §11
# Nocardia asteroides [1] = test: MIC on mass basis (Example V procedure); type: cell-based
# Experimental: as §9, §10, §11
# Pseudomonas aeruginosa = test: MIC on mass basis (Example V procedure); type: cell-based
# Experimental: as §9, §10, §11
# Saccharomyces cerevisiae = test: MIC on mass basis (Example V procedure); type: cell-based
# Experimental: as §9, §10, §11
# Staphylococcus aureus = test: MIC on mass basis (Example V procedure); type: cell-based
# Experimental: as §9, §10, §11
# Streptococcus agalactiae = test: MIC on mass basis (Example V procedure); type: cell-based
# Experimental: as §9, §10, §11
# Streptococcus mutans = test: MIC on mass basis (Example V procedure); type: cell-based, Streptococcus mutans (ATCC 10441)
# Experimental: as §9, §10, §11
# Corynebacterium sp. = test: MIC on mass basis (Example V procedure); type: cell-based
# Experimental: as §9
# Pneumococci = test: MIC, broth dilution (Examples I/II); type: cell-based, pneumococcus (63001); details: Table 8, Pneumococci
# Experimental: as §1, §2, §3, §4, §5, §6, §7, §8
# Streptococcus Group A = test: MIC, broth dilution (Examples I/II); type: cell-based, beta-hemolytic streptococci Group A; details: Table 8, Strep. Grp. A
# Experimental: as §1, §2, §3, §4, §5, §6, §7, §8
# Corynebacteria = test: MIC, broth dilution (Examples I/II); type: cell-based, Corynebacterium sp. (10700); details: Table 8, Corynebacteria
# Experimental: as §1, §2, §3, §4, §5, §6, §7, §8
# Nocardia asteroides [2] = test: MIC, broth dilution (Examples I/II); type: cell-based, Nocardia asteroids (3308); details: Table 8, Nocardia asteroides
# Experimental: as §1, §2, §3, §4, §5, §6, §7, §8
# Micrococci = test: MIC, broth dilution (Examples I/II); type: cell-based, Micrococcus sp.; details: Table 8, Micrococci
# Experimental: as §1, §2, §3, §4, §5, §6, §7, §8
# S. epidermidis = test: MIC, broth dilution (Examples I/II); type: cell-based; details: Table 8, Staph. epider.; > = no inhibition, max. tested
# Experimental: as §1, §2, §3, §4, §5, §6, §7, §8
# Sarcina = test: MIC, broth dilution (Examples I/II); type: cell-based, Sarcina lutea (9431); details: Table 8, Sarcina; > = no inhibition, max. tested
# Experimental: as §1, §2, §3, §4, §5, §6, §7, §8
molecule,measurement,setting,value
O=C(O)CCCCCCCCCCC(=O)O [Dodecanedioic acid],MIC,Streptococcus Group D,Ni
"CC(C)(C)c1ccc(C(C)(C)C)c(O)c1 [2,5-di-tert-butylphenol]",MIC,Candida albicans; Candida albicans,> 1000 µg/mL
same,MIC,Escherichia coli; Escherichia coli,> 1000 µg/mL
same,MIC,Nocardia asteroides [1]; Nocardia asteroides,7.8 µg/mL
same,MIC,Pseudomonas aeruginosa; Pseudomonas aeruginosa,> 1000 µg/mL
same,MIC,Saccharomyces cerevisiae; Saccharomyces cerevisiae,62.5 µg/mL
same,MIC,Staphylococcus aureus; Staphylococcus aureus,62.5 µg/mL
same,MIC,Streptococcus agalactiae; Streptococcus agalactiae,15.6 µg/mL
same,MIC,Streptococcus mutans; Streptococcus mutans,7.8 µg/mL
same,MIC,Corynebacterium sp.; Corynebacterium,7.8 µg/mL
"CC(C)(C)c1cc(O)cc(C(C)(C)C)c1 [3,5-di-tert-butylphenol]",MIC,Candida albicans; Candida albicans,62.5 µg/mL
same,MIC,Escherichia coli; Escherichia coli,> 1000 µg/mL
same,MIC,Nocardia asteroides [1]; Nocardia asteroides,15.6 µg/mL
same,MIC,Pseudomonas aeruginosa; Pseudomonas aeruginosa,> 1000 µg/mL
same,MIC,Saccharomyces cerevisiae; Saccharomyces cerevisiae,62.5 µg/mL
same,MIC,Staphylococcus aureus; Staphylococcus aureus,31.2 µg/mL
same,MIC,Streptococcus agalactiae; Streptococcus agalactiae,31.2 µg/mL
same,MIC,Streptococcus mutans; Streptococcus mutans,15.6 µg/mL
same,MIC,Corynebacterium sp.; Corynebacterium,15.6 µg/mL
"CC(C)(C)c1cc(C(C)(C)C)c(O)cc1O [4,6-di-tert-butylresorcinol]",MIC,"Candida albicans; Candida albicans, Table 11, Candida albicans, read-out: MIC",62.5 µg/mL
same,MIC,"Escherichia coli; Escherichia coli, Table 11, Escherichia coli, read-out: MIC",> 1000 µg/mL
same,MIC,"Nocardia asteroides [1]; Table 11, Nocardia asteroides, read-out: MIC",7.8 µg/mL
same,MIC,"Pseudomonas aeruginosa; Pseudomonas aeruginosa, Table 11, Pseudomonas aeruginosa, read-out: MIC",> 1000 µg/mL
same,MIC,Saccharomyces cerevisiae; Saccharomyces cerevisiae,15.6 µg/mL
same,MIC,"Staphylococcus aureus; Staphylococcus aureus, Table 11, Staphylococcus aureus, read-out: MIC",15.6 µg/mL
same,MIC,"Streptococcus agalactiae; Streptococcus agalactiae, Table 11, Strepococcus agalactiae, read-out: MIC",15.6 µg/mL
same,MIC,"Streptococcus mutans; Streptococcus mutans, Table 11, Strepococcus mutans, read-out: MIC",7.8 µg/mL
same,MIC,"Corynebacterium sp.; Table 11, Corynebacterium sp., read-out: MIC",7.8 µg/mL
Sucrose elaidate,MIC,Pneumococci,200 µM
same,MIC,Streptococcus Group A,200 µM
same,MIC,Corynebacteria,1640 µM
same,MIC,Nocardia asteroides [2],200 µM
same,MIC,Micrococci,820 µM
same,MIC,S. epidermidis,> 1640 µM
same,MIC,Sarcina,> 1640 µM
3(2)-tert-butyl-4-methoxyphenol [BHA],MIC,"Candida albicans; Table 11, Candida albicans",125 µg/mL
same,MIC,"Candida albicans; Table 13, Candida albicans",125 µg/mL
same,MIC,"Candida albicans; Table 14, Candida albicans",125 µg/mL
same,MIC,"Escherichia coli; Table 11, Escherichia coli","> 1,000 μg/ml"
same,MIC,"Escherichia coli; Table 13, Escherichia coli",500 µg/mL
same,MIC,"Escherichia coli; Table 14, Escherichia coli",500 µg/mL
same,MIC,"Nocardia asteroides [1]; Table 11, Nocardia asteroides",125 µg/mL
same,MIC,"Nocardia asteroides [1]; Table 13, Nocardia asteroides",62.50 µg/mL
same,MIC,"Nocardia asteroides [1]; Table 14, Nocardia asteroides",62.50 µg/mL
same,MIC,"Pseudomonas aeruginosa; Table 11, Pseudomonas aeruginosa","> 1,000 μg/ml"
same,MIC,"Pseudomonas aeruginosa; Table 13, Pseudomonas aeruginosa","> 1,000 μg/ml"
same,MIC,"Pseudomonas aeruginosa; Table 14, Pseudomonas aeruginosa","> 1,000 μg/ml"
same,MIC,"Saccharomyces cerevisiae; Table 13, Saccharomyces cerevisiae",125 µg/mL
same,MIC,"Saccharomyces cerevisiae; Table 14, Saccharomyces cerevisiae",125 µg/mL
same,MIC,"Staphylococcus aureus; Table 11, Staphylococcus aureus",125 µg/mL
same,MIC,"Staphylococcus aureus; Table 13, Staphylococcus aureus",125 µg/mL
same,MIC,"Staphylococcus aureus; Table 14, Staphylococcus aureus",125 µg/mL
same,MIC,"Streptococcus agalactiae; Table 11, Strepococcus agalactiae",125 µg/mL
same,MIC,"Streptococcus agalactiae; Table 13, Streptococcus agalactiae",62.50 µg/mL
same,MIC,"Streptococcus agalactiae; Table 14, Streptococcus agalactiae",62.50 µg/mL
same,MIC,"Streptococcus mutans; Table 11, Strepococcus mutans",62.50 µg/mL
same,MIC,"Streptococcus mutans; Table 13, Streptococcus mutans",62.50 µg/mL
same,MIC,"Streptococcus mutans; Table 14, Streptococcus mutans",62.50 µg/mL
same,MIC,"Corynebacterium sp.; Table 11, Corynebacterium sp.",62.50 µg/mL
Sucrose myristate,MIC,Pneumococci,230 µM
same,MIC,Streptococcus Group A,50 µM
same,"MIC (second value, in parentheses)",Streptococcus Group A; parentheses not explained,110 µM
same,MIC,Corynebacteria,110 µM
same,"MIC (second value, in parentheses)",Corynebacteria; parentheses not explained,110 µM
same,MIC,Nocardia asteroides [2],230 µM
same,"MIC (second value, in parentheses)",Nocardia asteroides [2]; parentheses not explained,110 µM
same,MIC,Micrococci,230 µM
same,MIC,S. epidermidis,> 1840 µM
same,MIC,Sarcina,> 1840 µM
